ChEMBL document CHEMBL4196131 (J Med Chem, 2018)
Activity calls are given as the source filed them. The rule behind the calls is not given here.

Key:
MCF7 [1] = test: cells; conditions: Homo sapiens, MCF7, 72 h
MCF7 [2] = test: Antiproliferative activity against human MCF7 cells after 72 hrs in presence of resveratrol by MTT assay; assay type: functional, cell-based; conditions: MCF7, 72 h
[3] = Inhibition of NFkappaB in mouse RAW 264.7 cells assessed as reduction in LPS induced NO production after 24 hrs by Griess assay; assay type: cell-based; conditions: RAW264.7, 24 h
[4] = Inhibition of NFkappaB in mouse RAW 264.7 cells assessed as reduction in LPS induced NO production after 24 hrs in presence of resveratrol by Griess assay relative to control; assay type: cell-based; conditions: RAW264.7, 24 h
Mus musculus [5] = species on record: Mus musculus; test: Inhibition of NFkappaB in mouse RAW 264.7 cells assessed as reduction in LPS induced NO production at 10 uM after 24 hrs in presence of resveratrol by Griess assay relative to control; assay type: cell-based
Mus musculus [6] = species on record: Mus musculus; test: Inhibition of NFkappaB in mouse RAW 264.7 cells assessed as reduction in LPS induced NO production at 10 uM after 24 hrs by Griess assay relative to control; assay type: cell-based
MCF7 [7] = test: Antitumor activity against human MCF7 cells xenografted in nude Balb/c mouse assessed as reduction in tumor burden at 25 mg/kg, po administered once every 2 days via gavage measured on day 12; assay type: functional; parameters: scale not given: the % may be the effect or the level left
MCF7 [8] = test: Antitumor activity against human MCF7 cells xenografted in nude Balb/c mouse assessed as tumor growth inhibition at 25 mg/kg, po administered once every 2 days via gavage measured on day 27; assay type: functional; conditions: read-out: TGI
Estrogen receptor beta [9] = biological target: T1, Estrogen receptor beta (Homo sapiens, UniProt Q92731); test: Agonist activity at human ERbeta expressed in HEK293T cells after 24 hrs by ERE-based dual luciferase reporter gene assay; assay type: cell-based
T1 sequence (Q92731 whole entry, the tested form may be a part): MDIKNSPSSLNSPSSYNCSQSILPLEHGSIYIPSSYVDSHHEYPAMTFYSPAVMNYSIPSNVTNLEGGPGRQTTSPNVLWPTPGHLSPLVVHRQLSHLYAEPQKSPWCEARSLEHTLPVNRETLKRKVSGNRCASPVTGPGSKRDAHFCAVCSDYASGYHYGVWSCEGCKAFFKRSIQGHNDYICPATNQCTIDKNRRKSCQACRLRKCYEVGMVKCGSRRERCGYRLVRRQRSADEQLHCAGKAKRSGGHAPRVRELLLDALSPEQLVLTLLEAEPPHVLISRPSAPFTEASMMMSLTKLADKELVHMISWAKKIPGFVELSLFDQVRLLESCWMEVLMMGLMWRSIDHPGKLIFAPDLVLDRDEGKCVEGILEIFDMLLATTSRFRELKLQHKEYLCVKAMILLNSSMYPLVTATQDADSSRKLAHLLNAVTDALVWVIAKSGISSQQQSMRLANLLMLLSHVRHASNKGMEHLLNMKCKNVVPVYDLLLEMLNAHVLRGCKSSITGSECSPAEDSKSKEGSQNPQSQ

Estrogen receptor beta [10] = biological target: T1, Estrogen receptor beta; test: Binding affinity to human ERbeta LBD after 2 hrs in absence of light by competitive fluorometric binding assay
[11] = biological target: T2, Estrogen receptor (Homo sapiens) (UniProt P03372); test: Antagonist activity at human ERalpha expressed in HEK293T cells after 24 hrs by ERE-based dual luciferase reporter gene assay relative to E2; assay type: cell-based
T2 sequence (whole entry): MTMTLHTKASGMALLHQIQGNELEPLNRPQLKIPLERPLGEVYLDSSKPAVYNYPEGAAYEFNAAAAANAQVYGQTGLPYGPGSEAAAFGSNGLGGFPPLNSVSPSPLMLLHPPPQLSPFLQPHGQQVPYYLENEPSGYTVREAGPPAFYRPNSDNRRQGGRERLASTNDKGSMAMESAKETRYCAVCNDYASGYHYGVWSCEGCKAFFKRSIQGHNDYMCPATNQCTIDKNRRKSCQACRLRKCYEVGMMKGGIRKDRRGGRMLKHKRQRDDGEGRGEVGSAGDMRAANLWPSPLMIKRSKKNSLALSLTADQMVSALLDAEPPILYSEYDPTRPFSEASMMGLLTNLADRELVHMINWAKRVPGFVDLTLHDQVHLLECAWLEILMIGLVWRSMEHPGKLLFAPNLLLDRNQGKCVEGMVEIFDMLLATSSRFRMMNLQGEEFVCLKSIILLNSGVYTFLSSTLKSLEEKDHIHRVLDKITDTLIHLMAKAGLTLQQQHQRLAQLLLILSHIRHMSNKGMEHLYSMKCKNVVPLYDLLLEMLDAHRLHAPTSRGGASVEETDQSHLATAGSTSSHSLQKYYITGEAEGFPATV

Estrogen receptor [12] = biological target: T3, Estrogen receptor (Homo sapiens, UniProt P03372); test: Binding affinity to human ERalpha LBD after 2 hrs in absence of light by competitive fluorometric binding assay
T3 sequence (P03372 whole entry): T2 sequence (whole entry)

Estrogen receptor beta [13] = biological target: T1, Estrogen receptor beta; test: Antagonist activity at human ERbeta expressed in HEK293T cells after 24 hrs by ERE-based dual luciferase reporter gene assay relative to E2; assay type: cell-based; parameters: concentration or dose not given beside the values
[14] = biological target: T2, Estrogen receptor (Homo sapiens); test: Agonist activity at human ERalpha expressed in HEK293T cells after 24 hrs by ERE-based dual luciferase reporter gene assay relative to E2; assay type: cell-based
Estrogen receptor beta [15] = biological target: T1, Estrogen receptor beta; test: Agonist activity at human ERbeta expressed in HEK293T cells after 24 hrs by ERE-based dual luciferase reporter gene assay relative to E2; assay type: cell-based
Estrogen receptor [16] = biological target: T3, Estrogen receptor; test: Antagonist activity at human ERalpha expressed in HEK293T cells after 24 hrs by ERE-based dual luciferase reporter gene assay; assay type: cell-based
Mus musculus [17] = test: Antiinflammatory activity in Balb/c mouse xenografted with human MCF7 cells assessed as inhibition of NFkappaB expression in tissues around the tumor at 17.5 to 25 mg/kg, po administered once every 2 days via gavage measured after 2 weeks post dose; assay type: functional, organism-based
Mus musculus [18] = test: Antiinflammatory activity in Balb/c mouse xenografted with human MCF7 cells assessed as inhibition of TNFalpha expression in tissues around the tumor at 17.5 to 25 mg/kg, po administered once every 2 days via gavage measured after 2 weeks post dose; assay type: functional, organism-based
Mus musculus [19] = test: Antiinflammatory activity in Balb/c mouse xenografted with human MCF7 cells assessed as inhibition of IL6 expression in tissues around the tumor at 17.5 to 25 mg/kg, po administered once every 2 days via gavage measured after 2 weeks post dose; assay type: functional, organism-based
MCF7 [20] = test: Antiproliferative activity against human MCF7 cells at 5 to 20 uM after 48 hrs in presence of JSH-23 by MTT assay
Mus musculus [21] = test: Toxicity in nude Balb/c mouse xenografted with human MCF7 cells assessed as reduction in body weight at 17.5 to 25 mg/kg, po administered once every 2 days via gavage measured every 3 days; assay type: organism-based; conditions: in vivo
Estrogen receptor beta [22] = biological target: T1, Estrogen receptor beta; test: Antagonist activity at human ERbeta expressed in HEK293T cells after 24 hrs by ERE-based dual luciferase reporter gene assay; assay type: cell-based
MCF7 [23] = test: Antitumor activity against human MCF7 cells xenografted in nude Balb/c mouse assessed as reduction in tumor burden at 17.5 mg/kg, po administered once every 2 days via gavage measured every 3 days; assay type: functional, organism-based
Estrogen receptor [24] = biological target: T3, Estrogen receptor; test: Agonist activity at human ERalpha expressed in HEK293T cells after 24 hrs by ERE-based dual luciferase reporter gene assay; assay type: cell-based
Mus musculus [25] = species on record: Mus musculus; test: Inhibition of NFkappaB in mouse RAW 264.7 cells assessed as reduction in LPS induced NO production at 10 uM after 24 hrs in presence of OBHS by Griess assay relative to control; assay type: cell-based
MCF7 [26] = test: Antiproliferative activity against human MCF7 cells after 72 hrs in presence of OBHS by MTT assay; conditions: MCF7, 72 h
[27] = Inhibition of NFkappaB in mouse RAW 264.7 cells assessed as reduction in LPS induced NO production after 24 hrs in presence of OBHS by Griess assay; conditions: RAW264.7, 24 h

Structure (SMILES)	IC50 (MCF7 [1]) [µM]	IC50 [3] [µM]	EC50 (Estrogen receptor beta [9]) [µM]	Ki (Estrogen receptor beta [10]) [µM]	Efficacy [11] [%]	Ki (Estrogen receptor [12]) [µM]	Efficacy (Estrogen receptor beta [13]) [%]	Efficacy [14] [%]	Efficacy (Estrogen receptor beta [15]) [%]	IC50 (Estrogen receptor [16]) [µM]	inhibition (Mus musculus [6]) [%]	also measured
O=S(=O)(Oc1ccccc1)[C@H]1C[C@@H]2O[C@@H]1C(c1ccc(O)cc1)=C2c1ccc(O)cc1 (relative stereo)	32	18.4	–	–	–	–	–	–	–	–	41.5	IC50 (MCF7 [2]): 25.4 µM; IC50 [4]: 11 µM; inhibition (Mus musculus [5]): 80.4%
CC/C(=C(\c1ccccc1)c1ccc(OCCN(C)C)cc1)c1ccccc1 [TAMOXIFEN]	–	–	–	–	–	–	–	–	–	–	–	Activity (MCF7 [7]): 48%; inhibition in vivo at 25 mg/kg (MCF7 [8]): 33%
COc1cc(/C=C/c2ccc(C3=C(c4ccc(O)cc4)C4CC(S(=O)(=O)Oc5ccccc5)C3O4)cc2)cc(OC)c1 (centres undefined)	> 100	> 100	5.76	> 10	89	> 10	85	10	57	–	20.4	–
COc1cc(/C=C/c2ccc(C3=C(c4ccc(O)cc4)C4CC(S(=O)(=O)Oc5ccc(Br)cc5)C3O4)cc2)cc(OC)c1 (centres undefined)	> 100	> 100	–	> 10	97	> 10	94	18	6	9.27	30.8	–
Oc1ccc(/C=C/c2cc(O)cc(O)c2)cc1 [RESVERATROL]	22.9	13.1	–	–	–	–	–	–	–	–	48	inhibition (Mus musculus [25]): 80.4%; IC50 (MCF7 [26]): 25.4 µM; IC50 [27]: 11 µM

Continued, in another order:

IC50 (MCF7 [1]) [µM]	IC50 [3] [µM]	EC50 (Estrogen receptor beta [9]) [µM]	Ki (Estrogen receptor beta [10]) [µM]	Efficacy [11] [%]	Ki (Estrogen receptor [12]) [µM]	Efficacy (Estrogen receptor beta [13]) [%]	Efficacy [14] [%]	Efficacy (Estrogen receptor beta [15]) [%]	IC50 (Estrogen receptor [16]) [µM]	Structure (SMILES)	inhibition (Mus musculus [6]) [%]	also measured
3.7	0.44	0.004	0.0734	48	0.0349	32	9 to 23	23	0.007	COc1cc(/C=C/c2ccc(OS(=O)(=O)C3CC4OC3C(c3ccc(O)cc3)=C4c3ccc(O)cc3)cc2)cc(OC)c1 (centres undefined)	95.6	inhibition (Mus musculus [17]): Active; inhibition (Mus musculus [18]): Active; inhibition (Mus musculus [19]): Active; Activity (MCF7 [20]): inactive; Activity (Mus musculus [21]): Non-Toxic; Activity (MCF7 [7]): 55%; IC50 (Estrogen receptor beta [22]): 0.934 µM; inhibition in vivo at 25 mg/kg (MCF7 [8]): ≤ 69%; Activity (MCF7 [23]): Active
18.3	17.2	2.9	–	3	0.499	82	-24	48	–	O=S(=O)(Oc1ccccc1C(F)(F)F)C1CC2OC1C(c1ccc(/C=C/c3cc(O)cc(O)c3)cc1)=C2c1ccc(O)cc1 (centres undefined)	38.5	–
9.2	12.5	0.78	–	1	–	42	77	29	0.002	Cc1ccc(OS(=O)(=O)C2CC3OC2C(c2ccc(/C=C/c4cc(O)cc(O)c4)cc2)=C3c2ccc(O)cc2)cc1 (centres undefined)	42.3	EC50 (Estrogen receptor [24]): 0.071 µM; IC50 (Estrogen receptor beta [22]): 0.069 µM
